Data on 15 compounds can be found in patent US20260327191A1, “GSK3a INHIBITORS AND METHODS OF USE THEREOF” (Blueprint Medicines Corporation, priority 2023, published 2026).

Structures can show the parent of a compound that is named as a salt. Where two headings read alike, the source gives them in different places.

In one assay the test system is GSK3α or GSK3B. Kind of assay: Measured Km for ATP in the GSK3 in vitro enzymatic activity assay. The class given is biochemical, human. The conditions noted are these: role: substrate; 100 mM HEPES pH 7.5, 10 mM MgCl2; 1.0 μM peptide substrate (5-FAM-KRREILSRRPpSYR-COOH); 25° C. Here is the method:
Full length human GSK3α or GSK3B expressed as N-terminal GST fusion proteins in baculovirus host were purchased from Carna Biosciences (Japan). The kinase was pre-incubated with ATP (adenosine-5′-triphosphate) for 45 min, then incubated with tested compounds for another 45 min in assay buffer that contains 100 mM HEPES (N-2-hydroxyethylpiperazine-N′-2-ethanesulfonic acid), pH 7.5, 10 mM MgCl2, 1.0 mM DTT, and 0.015% Briji-35. […] Percent inhibition was plotted against compound concentration to generate 10-point dose response curve with 3-fold serial dilution starting from 10 μM. IC50 value was determined from the 4-parameter logistic curve fitting.

The target of assay [1] is T1, GSK3B (Homo sapiens, UniProt P49841). Kind of assay: In vitro enzymatic activity assay, GSK3β. The class given is biochemical. On the set-up: Full length human GSK3α or GSK3B expressed as N-terminal GST fusion proteins; GST (N); purchased Carna Biosciences (Japan); host or cells: baculovirus host. The conditions noted are these: 1.0 mM ATP, 1.0 μM peptide substrate, 120 min, 25° C.

For another assay, the target named is T2, human GSK3α (Homo sapiens, UniProt P49840).
T2 construct: Full length human GSK3α or GSK3B expressed as N-terminal GST fusion proteins; GST (N); purchased Carna Biosciences (Japan); host or cells: baculovirus host
As to the kind of experiment: In vitro enzymatic activity assay, GSK3α. The conditions noted are these: 1.0 mM ATP, 1.0 μM peptide substrate, 120 min, 25° C. The class given is biochemical.

The target in assay [2] is T1, GSK3B. As to the kind of experiment: NanoBRET cellular target engagement assay, Nanoluc-GSK3B in HEK293 cells. Format: cell-based. On the set-up: expressed in transfected cells. The conditions noted are these: NanoBRET GSK3β IC50, HEK293 cells, tracer K-8, 2 hours, 37° C. In general terms: BRET reads energy transfer from a luciferase to a nearby fluorophore.
The next assay addresses T3, GSK3A (Homo sapiens, UniProt P49840).
T3 construct: expressed in transfected cells
Kind of assay: NanoBRET cellular target engagement assay, Nanoluc-GSK3A in HEK293 cells. Format: cell-based. The conditions noted are these: NanoBRET GSK3α IC50, HEK293 cells, tracer K-8, 2 hours, 37° C.

A further assay relates to GSK3α knockout mice. The conditions noted are these: blockade of autophagy and mTOR pathway activation; cited from earlier work.

T1 sequence (P49841 whole entry, the tested form may be a part): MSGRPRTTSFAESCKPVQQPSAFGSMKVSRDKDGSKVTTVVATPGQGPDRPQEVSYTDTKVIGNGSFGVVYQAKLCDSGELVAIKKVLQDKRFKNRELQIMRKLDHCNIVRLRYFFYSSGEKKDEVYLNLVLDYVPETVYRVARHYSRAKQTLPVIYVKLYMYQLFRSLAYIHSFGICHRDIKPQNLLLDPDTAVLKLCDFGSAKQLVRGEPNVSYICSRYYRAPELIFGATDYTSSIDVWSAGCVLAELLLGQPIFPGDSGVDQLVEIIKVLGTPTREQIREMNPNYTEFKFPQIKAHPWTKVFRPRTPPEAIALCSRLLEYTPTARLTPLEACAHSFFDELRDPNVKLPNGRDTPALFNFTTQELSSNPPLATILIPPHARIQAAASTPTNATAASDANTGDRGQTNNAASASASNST
T2 sequence (P49840 whole entry, the tested form may be a part): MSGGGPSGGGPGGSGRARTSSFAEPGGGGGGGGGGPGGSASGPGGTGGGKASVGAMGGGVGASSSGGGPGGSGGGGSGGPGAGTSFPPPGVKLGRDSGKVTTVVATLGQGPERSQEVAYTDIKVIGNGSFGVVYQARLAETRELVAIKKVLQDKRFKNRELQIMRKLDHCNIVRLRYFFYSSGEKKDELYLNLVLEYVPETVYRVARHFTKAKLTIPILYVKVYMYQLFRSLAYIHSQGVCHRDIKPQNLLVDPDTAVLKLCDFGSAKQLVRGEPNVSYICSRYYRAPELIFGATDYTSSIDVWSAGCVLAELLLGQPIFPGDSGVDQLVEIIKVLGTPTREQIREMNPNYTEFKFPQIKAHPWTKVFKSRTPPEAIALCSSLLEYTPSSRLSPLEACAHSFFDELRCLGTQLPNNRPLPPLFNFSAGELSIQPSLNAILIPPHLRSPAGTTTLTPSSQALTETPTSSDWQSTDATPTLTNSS
T3 sequence (P49840 whole entry): as the sequence (P49840 whole entry, the tested form may be a part) above

What is called Km is the concentration of substrate that gives half-maximal velocity. Consider `Nc1ncnc2c1ncn2[C@@H]1O[C@H](COP(=O)(O)OP(=O)(O)OP(=O)(O)O)[C@@H](O)[C@H]1O` [ATP, adenosine-5′-triphosphate], for which the Michaelis constant (Km) with GSK3α or GSK3B was 10 to 15 µM.

By IC50 is commonly meant the concentration that gives 50% inhibition. Regarding `COC(=O)c1cc(Cl)c(-n2cnc(N)c(C(=O)Nc3cncc([C@@H]4CCCCN4)c3)c2=O)c(Cl)c1` [Example 196, methyl(S)-4-(4-amino-6-oxo-5-((5-(piperidin-2-yl)pyridin-3-yl)carbamoyl)pyrimidin-1 (6H)-yl)-3,5-dichlorobenzoate], the IC50 was determined as 400 nM at GSK3B [1] (read-out: Enzyme GSK3β (IC50)), 6.6 nM on human GSK3α (read-out: Enzyme GSK3α (IC50)), 242 nM on GSK3B [2] and 4.2 nM against GSK3A.

`CCNCc1cncc(NC(=O)c2c(N)ncn(-c3c(Cl)cc(C(=O)OC)cc3Cl)c2=O)c1` [Example 198, methyl 4-(4-amino-5-((5-((ethylamino)methyl)pyridin-3-yl)carbamoyl)-6-oxopyrimidin-1 (6H)-yl)-3,5-dichlorobenzoate]: the concentration for half-maximal inhibition (IC50) at GSK3B [1] (read-out: Enzyme GSK3β (IC50)) is 332 nM; at human GSK3α (read-out: Enzyme GSK3α (IC50)), 5.6 nM; at GSK3B [2], 209 nM; on GSK3A it was 3.7 nM.

In the case of `CCNCc1cncc(NC(=O)c2c(N)ncn(-c3c(Cl)cc(C(=O)OCC)cc3Cl)c2=O)c1` [Example 199, ethyl 4-(4-amino-5-((5-((ethylamino)methyl)pyridin-3-yl)carbamoyl)-6-oxopyrimidin-1 (6H)-yl)-3,5-dichlorobenzoate], the half-inhibitory concentration (IC50) on GSK3B [1] (read-out: Enzyme GSK3β (IC50)) amounted to 203 nM; at human GSK3α (read-out: Enzyme GSK3α (IC50)) it was 3.3 nM; against GSK3B [2] it was 118 nM; against GSK3A, 2.4 nM.

In the case of `CCNCc1cncc(NC(=O)c2c(N)ncn(-c3c(Cl)cc(-c4cnco4)cc3Cl)c2=O)c1` [Example 200, 4-amino-1-(2,6-dichloro-4-(oxazol-5-yl)phenyl)-N-(5-((ethylamino)methyl)pyridin-3-yl)-6-oxo-1,6-dihydropyrimidine-5-carboxamide], the IC50 was found to be 813 nM at GSK3B [1] (read-out: Enzyme GSK3β (IC50)), 14.4 nM on human GSK3α (read-out: Enzyme GSK3α (IC50)), 451 nM on GSK3B [2] and 7.6 nM against GSK3A.

Turning to `CCNCc1cncc(NC(=O)c2c(N)ncn(-c3c(Cl)cc(-c4ncco4)cc3Cl)c2=O)c1` [Example 201, 4-amino-1-(2,6-dichloro-4-(oxazol-2-yl)phenyl)-N-(5-((ethylamino)methyl)pyridin-3-yl)-6-oxo-1,6-dihydropyrimidine-5-carboxamide], the half-maximal inhibitory concentration (IC50) on GSK3B [1] (read-out: Enzyme GSK3β (IC50)) was determined as 608 nM; on human GSK3α (read-out: Enzyme GSK3α (IC50)), 13.7 nM; against GSK3B [2] it was 430 nM; against GSK3A, 7.4 nM.

With `CCNCc1cncc(NC(=O)c2c(N)ncn(-c3c(Cl)cc(CC(F)(F)F)cc3Cl)c2=O)c1` [Example 202, 4-amino-1-(2,6-dichloro-4-(2,2,2-trifluoroethyl)phenyl)-N-(5-((ethylamino)methyl)pyridin-3-yl)-6-oxo-1,6-dihydropyrimidine-5-carboxamide], the IC50 at GSK3B [1] (read-out: Enzyme GSK3β (IC50)) amounted to 432 nM; on human GSK3α (read-out: Enzyme GSK3α (IC50)) it was 8.7 nM; against GSK3B [2] it was 385 nM; against GSK3A it was 5.9 nM.

In the case of `CCNCc1cncc(NC(=O)c2c(N)ncn(-c3c(Cl)cc(CC(F)F)cc3Cl)c2=O)c1` [Example 203, 4-amino-1-(2,6-dichloro-4-(2,2-difluoroethyl)phenyl)-N-(5-((ethylamino)methyl)pyridin-3-yl)-6-oxo-1,6-dihydropyrimidine-5-carboxamide], the IC50 at GSK3B [1] (read-out: Enzyme GSK3β (IC50)) is 318 nM; at human GSK3α (read-out: Enzyme GSK3α (IC50)) it was 8 nM; against GSK3B [2] it was 293 nM; at GSK3A it was 3.7 nM.

In the case of `COc1cc(C)c(-n2cnc(N)c(C(=O)Nc3cncc([C@H]4CCCCN4)c3)c2=O)c(C)c1` [Example 205, (R)-4-amino-1-(4-methoxy-2,6-dimethylphenyl)-6-oxo-N-(5-(piperidin-2-yl)pyridin-3-yl)-1,6-dihydropyrimidine-5-carboxamide], the IC50 on GSK3B [1] (read-out: Enzyme GSK3β (IC50)) turned out to be 238 nM; at human GSK3α (read-out: Enzyme GSK3α (IC50)), 5 nM; on GSK3B [2], 204 nM; at GSK3A it was 3.7 nM.

On to `Cc1cc(CC(=O)O)cc(C)c1-n1cnc(N)c(C(=O)Nc2cncc([C@H]3CCCCN3)c2)c1=O` [Example 207, (R)-2-(4-(4-amino-6-oxo-5-((5-(piperidin-2-yl)pyridin-3-yl)carbamoyl)pyrimidin-1 (6H)-yl)-3,5-dimethylphenyl) acetic acid], for which the concentration for half-maximal inhibition (IC50) against GSK3B [1] (Enzyme GSK3β (IC50)) was 234 nM; against human GSK3α (Enzyme GSK3α (IC50)) it was 5.3 nM; against GSK3B [2] it was 25000 nM; on GSK3A, 966 nM.

In the case of `Nc1ncn(-c2c(Cl)cc(N3CCC3)cc2Cl)c(=O)c1C(=O)Nc1cncc([C@@H]2CCCCN2)c1` [Example 209, (S)-4-amino-1-(4-(azetidin-1-yl)-2,6-dichlorophenyl)-6-oxo-N-(5-(piperidin-2-yl)pyridin-3-yl)-1,6-dihydropyrimidine-5-carboxamide], the half-inhibitory concentration (IC50) on GSK3B [1] (read-out: Enzyme GSK3β (IC50)) amounted to 383 nM; at human GSK3α (read-out: Enzyme GSK3α (IC50)), 5.2 nM; against GSK3B [2], 300 nM; on GSK3A it was 5.9 nM.

With `Cc1cc(C(F)(F)F)cc(C)c1-n1cnc(N)c(C(=O)Nc2cncc([C@H]3CCCCN3)c2)c1=O` [Example 216, (R)-4-amino-1-(2,6-dimethyl-4-(trifluoromethyl)phenyl)-6-oxo-N-(5-(piperidin-2-yl)pyridin-3-yl)-1,6-dihydropyrimidine-5-carboxamide], the 50% inhibitory concentration (IC50) on GSK3B [1] (read-out: Enzyme GSK3β (IC50)) turned out to be 293 nM; at human GSK3α (read-out: Enzyme GSK3α (IC50)), 5.6 nM; against GSK3B [2], 173 nM; at GSK3A it was 3.4 nM.

As to `CCOc1c(CN)cccc1NC(=O)c1c(N)ncn(-c2c(Cl)cccc2Cl)c1=O` [Example 220, 4-amino-N-(3-(aminomethyl)-2-ethoxyphenyl)-1-(2,6-dichlorophenyl)-6-oxo-1,6-dihydropyrimidine-5-carboxamide], the half-inhibitory concentration (IC50) at GSK3B [1] (read-out: Enzyme GSK3β (IC50)) was 308 nM; on human GSK3α (read-out: Enzyme GSK3α (IC50)) it was 11.7 nM; on GSK3B [2], 259 nM; against GSK3A, 8.1 nM.

In the case of `COc1c(CN)cccc1NC(=O)c1c(N)ncn(-c2c(Cl)cccc2Cl)c1=O` [Example 221, 4-amino-N-(3-(aminomethyl)-2-methoxyphenyl)-1-(2,6-dichlorophenyl)-6-oxo-1,6-dihydropyrimidine-5-carboxamide trifluoroacetate], the IC50 on GSK3B [1] (read-out: Enzyme GSK3β (IC50)) amounted to 400 nM; at human GSK3α (read-out: Enzyme GSK3α (IC50)), 15.6 nM; on GSK3B [2] it was 235 nM; on GSK3A, 7.3 nM.

With `CO[C@H]1C[C@@H]2CC[C@@H](C)[C@@](O)(O2)C(=O)C(=O)N2CCCC[C@H]2C(=O)O[C@H]([C@H](C)C[C@@H]2CC[C@@H](OCCO)[C@H](OC)C2)CC(=O)[C@H](C)/C=C(\C)[C@@H](O)[C@@H](OC)C(=O)[C@H](C)C[C@H](C)/C=C/C=C/C=C/1C` [everolimus], the “reversal of mild aging phenotypes of GSK3α knockout mice” value in the assay on GSK3α knockout mice is listed as “could be reversed”.
